# Experimental data from patent US9920056B2, “2-oxo-1,3,8-triazaspiro[4.5]decan-3-yl] carboxylic acid derivatives” (Eli Lilly and Company, priority 2015, dated 2018).
# Assays:
# [1] = test system: male c57BL/6 mice; assay: Oral Glucose Tolerance Test (OGTT): glucose and active GLP-1; format: in vivo, mouse; conditions: for Active GLP-1 Fold Increase / Glucose % Lowering: vs vehicle
# Experimental: Maintain mice under approved Animal Care and Use protocols for Lilly Research Laboratories and house on a 12 hour light cycle from 6 am to 6 pm. For the OGTT, fast the mice between 3 & 4 pm. The following day at 6 am, measure body weights and collect baseline blood samples via tail vein for glucose (Roche Aviva glucometer). […] No. […] No. DPP-4)/aprotinin (Fisher BioReagents, Cat. No. BP250310), store on wet ice, spin down (3500 rpm, 4° C.), draw off plasma, plate and freeze. […] No. […]-2). Calculate area under the curve (AUC) values.
# [2] = target: T1, hSSTR5 (Homo sapiens, UniProt P35346); assay: Somatostatin binding assay (SPA, 125I-Somatostatin 14), human SSTR5 membranes; parameters: purchased Perkin Elmer ES-522-M400UA; host or cells: CHO (the text speaks of CHO-SSTR5 receptors); conditions: human somatostatin 5 membranes, 0.25 nM [125I]-Somatostatin 14
# Experimental: (§1) The antagonistic effect of the compound of Example 2 can be evaluated in human and mouse SSTR5 binding assays utilizing a scintillation proximity assay (SPA) format for a concentration response curve (CRC) (^125I-Somatostatin 14 binding to CHO-SSTR5 receptors). Perform measurement of SSTR5 binding utilizing either human somatostatin 5 membranes (manufactured by Perkin Elmer (ES-522-M400UA)) at a concentration of 0.4 μg/well or transiently expressed mouse SSTR5 membranes (generated in-house using Lipofectamine 2000 according to the manufacture's protocol (Life Technologies)) at a concentration of 8 μg/well. Homogenize membranes or dilute in buffer (prepare buffer from 25 mM HEPES (manufactured by HyClone), 5 mM MgCl2 (manufactured by Sigma), 1 mM CaCl2 (manufactured by Sigma), 0.5% BSA, pH 7.4 (manufactured by Gibco)).
# [3] = target: T2, mouse SSTR5 (Mus musculus, UniProt O08858); assay: Somatostatin binding assay (SPA, 125I-Somatostatin 14), mouse SSTR5 membranes; conditions: transiently expressed mouse SSTR5 membranes, 0.25 nM [125I]-Somatostatin 14
# T2 construct: expressed in transfected cells; host or cells: probably CHO ('CHO-SSTR5 receptors')
# T2 sequence (O08858 1-362): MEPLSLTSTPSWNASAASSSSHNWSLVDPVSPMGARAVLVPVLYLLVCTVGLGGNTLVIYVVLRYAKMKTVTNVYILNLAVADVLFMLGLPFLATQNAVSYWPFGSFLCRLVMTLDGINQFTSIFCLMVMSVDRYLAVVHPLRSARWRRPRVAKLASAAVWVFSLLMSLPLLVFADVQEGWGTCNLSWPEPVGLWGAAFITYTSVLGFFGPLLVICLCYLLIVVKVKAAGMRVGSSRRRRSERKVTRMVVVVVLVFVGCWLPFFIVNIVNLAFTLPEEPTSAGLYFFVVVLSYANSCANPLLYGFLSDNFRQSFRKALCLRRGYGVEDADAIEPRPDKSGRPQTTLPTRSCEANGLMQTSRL
# Experimental: as §1
# [4] = target: T1, hSSTR5; assay: β-Arrestin whole cell functional assay (PathHunter CHO-K1 hSSTR5 β-arrestin cells); format: cell-based; parameters: host or cells: CHO-K1 (PathHunter engineered line); conditions: EC80 agonist 37.5 nM SST14
# Experimental: A β-arrestin whole cell, functional assay, utilizing U20S cells (human osteosarcoma cells), can directly measure effects of the compound of Example 2 on GPCR activity by determining its effects on the interaction of β-arrestin with the activated GPCR. Perform the CRC measurement of β-arrestin activity utilizing PathHunter CHO-K1 hSSTR5 β-arrestin cells from DiscoveRx (93-0402C2). Plate cells at a concentration of 5K/well in 50 μl of assay plating media in 384-well White Plates with opaque bottom (manufactured by Corning (3570)) and incubate overnight at 37° C./5% CO2. Prepare test solutions by diluting 3 μl of Example 2 with 27 μl of DMSO for a step down dilution. Mix the diluted plate of the current invention on a plate shaker for five minutes. Wash cells with 50 μl of PBS (manufactured by HyClone) three times using a plate washer. After washing, use a Wellmate to add 15 μl of assay buffer (assay buffer prepared from HBSS (manufactured by HyClone), 20 mM HEPES (manufactured by HyClone) with 0.1% BSA (manufactured by Gibco)) to the cells followed by 100 nl of the present invention serial dilution. Incubate the cells at 37° C./5% CO2 for 30 min.
# [5] = test system: male c57BL/6 mice; assay: GLP-1 secretion in vivo, 12 hour PK/PD study; parameters: species or system mouse; conditions: for Active GLP-1 AUC Fold Increase: vs vehicle
# Experimental: Use male c57BL/6 mice from Harlan Laboratories at 8-9 weeks of age to evaluate the effects of the compound of Example 2 on GLP-1 Secretion in vivo during a 12 hour pharmacokinetic/pharmacodynamic (PK/PD) study. Maintain mice under approved Animal Care and Use protocols for Lilly Research Laboratories and house on a 12 hour light cycle from 6 am to 6 pm. The day prior to the evaluation, fast the mice at 6 pm. The following day at 6 am, measure body weight and administer vehicle (HEC 1%/Tween 80 0.25%/Antifoam 0.05%) or the compound of Example 2 alone in vehicle (HEC 1%/Tween 80 0.25%/Antifoam 0.05% suspension). Collect blood samples for measurement of active GLP-1 levels and plasma exposure (˜150 μl into EDTA coated Sarstedt Microvette® CB300 K2E tubes) at 0.25, 0.5, 1, 2, 4, 6, 9, 12 hours post-administration (only two samples collected from each mouse, euthanizing immediately following the second blood collection) Immediately after collecting the blood, preserve active GLP-1 samples with 5 μl of a mixture of DPP4 inhibitor (Bio Trend Cat. No. DPP-4)/aprotinin (Fisher BioReagents, Cat. No. BP250310), store on wet ice, spin down (3500 rpm, 4° C.). Draw off plasma, plate and freeze. Store GLP-1 samples at −80° C. until they can be analyzed utilizing a Meso Scale Discovery Active GLP-1 (v2) Kit (Cat. No. K150JWC-2). Calculate area under the curve (AUC) values.
# [6] = Example 1 0.3 mg/kg orally 90 min before glucose bolus
# [7] = Example 1 30 mg/kg orally 90 min before glucose bolus
# [8] = Sitagliptin 10 mg/kg orally 90 min before glucose bolus
# T1 sequence (P35346 whole entry): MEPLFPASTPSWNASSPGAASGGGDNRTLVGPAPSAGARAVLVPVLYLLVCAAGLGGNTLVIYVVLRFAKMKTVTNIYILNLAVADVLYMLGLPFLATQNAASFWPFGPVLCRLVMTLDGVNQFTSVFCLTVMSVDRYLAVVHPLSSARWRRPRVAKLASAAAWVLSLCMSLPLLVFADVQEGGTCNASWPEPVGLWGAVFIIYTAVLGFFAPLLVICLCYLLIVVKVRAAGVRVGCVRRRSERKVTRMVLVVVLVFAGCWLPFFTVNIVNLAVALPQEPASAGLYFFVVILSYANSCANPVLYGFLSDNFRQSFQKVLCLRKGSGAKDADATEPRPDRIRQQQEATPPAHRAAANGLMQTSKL
structure (smiles),measurement,setting,value
"CCOc1cc(CN2CCC3(CC2)CN(c2ccc(C(=O)O)cc2)C(=O)N3)c(C2CC2)cc1C.Cl [Example 1, 4-[8-[(2-Cyclopropyl-5-ethoxy-4-methyl-phenyl)methyl]-2-oxo-1,3,8-triazaspiro[4.5]decan-3-yl]benzoic acid hydrochloride]",Active GLP-1 AUC (0-60 min),[1]; [6],93.2 ± 15.5 pg/mL-min
same,Glucose AUC (0-60 min),[1]; [6],7441 ± 612 mg·min/dL
same,Active GLP-1 Fold Increase,[1]; Example 1 0.3 mg/kg orally,1.8
same,Glucose % Lowering,[1]; Example 1 0.3 mg/kg orally,23%
same,Active GLP-1 AUC (0-60 min),[1]; [7],151 ± 14.0 pg/mL-min
same,Glucose AUC (0-60 min),[1]; [7],5674 ± 360 mg·min/dL
same,Active GLP-1 Fold Increase,[1]; Example 1 30 mg/kg orally,2.9
same,Glucose % Lowering,[1]; Example 1 30 mg/kg orally,41%
same,effect on GLP-1 in OGTT (in words),[1]; OGTT in mice,increased GLP-1 activity
same,effect on glucose in OGTT (in words),[1]; OGTT in mice,glucose lowering effect
"CCOc1cc(CN2CCC3(CC2)CN(c2ccc(C(=O)O)cc2)C(=O)N3)c(C2CC2)cc1C [Example 2, 4-[8-[(2-Cyclopropyl-5-ethoxy-4-methyl-phenyl)methyl]-2-oxo-1,3,8-triazaspiro[4.5]decan-3-yl]benzoic acid hydrate]",Ki,[2],0.54 nM
same,Ki,[3],4.87 nM
same,IC50,[4],0.81 nM
same,Active GLP-1 AUC (0-12 hours),"[5]; 0.3 mg/kg, fasted mice",60.2 ± 2.9 pg/mL-hour
same,Active GLP-1 AUC Fold Increase,[5]; 0.3 mg/kg,1.9
same,Active GLP-1 AUC (0-12 hours),"[5]; 1 mg/kg, fasted mice",71.2 ± 3.3 pg/mL-hour
same,Active GLP-1 AUC Fold Increase,[5]; 1 mg/kg,2.2
same,Active GLP-1 AUC (0-12 hours),"[5]; 3 mg/kg, fasted mice",72.5 ± 4.3 pg/mL-hour
same,Active GLP-1 AUC Fold Increase,[5]; 3 mg/kg,2.3
same,Active GLP-1 AUC (0-12 hours),"[5]; 10 mg/kg, fasted mice",87.3 ± 3.8 pg/mL-hour
same,Active GLP-1 AUC Fold Increase,[5]; 10 mg/kg,2.7
same,Active GLP-1 AUC (0-12 hours),"[5]; 30 mg/kg, fasted mice",86.3 ± 4.6 pg/mL-hour
same,Active GLP-1 AUC Fold Increase,[5]; 30 mg/kg,2.7
same,effect on active GLP-1 (in words),"[5]; fasted mice, no glucose load",non-glucose dependent effect to increase active GLP-1
"N[C@@H](CC(=O)N1CCn2c(nnc2C(F)(F)F)C1)Cc1cc(F)c(F)cc1F [Sitagliptin, sitagliptin, reference compound]",Active GLP-1 AUC (0-60 min),[1]; [8],343 ± 73 pg/mL-min
same,Glucose AUC (0-60 min),[1]; [8],5308 ± 237 mg·min/dL
same,Active GLP-1 Fold Increase,[1]; Sitagliptin 10 mg/kg orally,6.6
same,Glucose % Lowering,[1]; Sitagliptin 10 mg/kg orally,45%
